# *1 amine or outer side, *2 acyl side, *3 side chain or, on linkers, in order; H or OH if unused. Where a SMILES comes first, the peptide text is derived from it. Bridges are numbered along the chain shown (N, C = ends). [ ]: non-standard residue; d: D form. Acbc(trans-1,3) = O=C([C@H]1C[C@H](N[*:1])C1)[*:2]; Acbc(cis-1,3) = O=C([C@H]1C[C@@H](N[*:1])C1)[*:2]; X1 = O=C([C@@H]1CCC[C@@H]1N[*:1])[*:2]
# Assays:
# [1] = target: T1, Fc-tagged human IFNGR1 (Homo sapiens, UniProt P15260); test: Binding kinetics and affinity to IFNGR1 by surface plasmon resonance (SPR); conditions: SPR, 25 °C, 1:1 binding model; for Kd: read-out: KD; for kon: single-cycle kinetics, read-out: ka
# T1 construct: purchased ACROBiosystems
# T1 sequence (P15260 18-489): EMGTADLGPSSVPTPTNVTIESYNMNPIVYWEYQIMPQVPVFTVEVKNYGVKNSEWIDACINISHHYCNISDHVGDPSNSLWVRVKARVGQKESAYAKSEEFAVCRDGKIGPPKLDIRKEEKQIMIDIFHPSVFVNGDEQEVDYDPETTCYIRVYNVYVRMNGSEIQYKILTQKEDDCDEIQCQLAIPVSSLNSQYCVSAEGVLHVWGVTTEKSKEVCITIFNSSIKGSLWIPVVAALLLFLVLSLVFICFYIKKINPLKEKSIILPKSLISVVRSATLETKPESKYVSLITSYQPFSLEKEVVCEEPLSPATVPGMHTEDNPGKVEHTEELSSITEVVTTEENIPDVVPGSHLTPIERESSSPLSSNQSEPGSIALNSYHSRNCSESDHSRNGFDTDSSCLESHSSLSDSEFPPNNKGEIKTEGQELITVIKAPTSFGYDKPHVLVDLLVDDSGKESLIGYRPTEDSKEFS
# Method: Binding affinities of IA1 and IA2 against IFNGR1 were evaluated by surface plasmon resonance (SPR) (Table 1 and SI Figure S6A). […] To investigate the contribution of the N-terminal [yVPβ^1RR] motif and β^1 residue in IA1, three scrambled peptides IA1s1–3 and a variant IA1β^14A were synthesized and evaluated. […] We next evaluated inhibitory activities of IA1 and IA2 against the ligand–receptor PPI between IFN-γ and IFNGR1 using AlphaLISA (Table 1 and SI Figure S7).[37] […] We also determined the serum half-lives of IA1 and IA2, considering peptidase resistance as an important factor for therapeutic peptides.[24] A sample peptide and a peptidase-resistant internal standard peptide were coincubated in human serum at 37 °C, and the relative amount of the remaining sample peptide was estimated by LC/MS. […]
# Evaluation of binding affinity of peptides by surface plasmon resonance The binding affinities of selected peptides and IFNGR1 were analyzed by surface plasmon resonance (SPR) using a Biacore T200 instrument (Cytiva) at 25 °C with the following running buffer: 10 mM Tris-HCl (pH 8.0), 150 mM NaCl, 0.05% (v/v) Tween 20 , and 0.1% (v/v) DMSO. Fc-tagged IFNGR1 was immobilized on a series S sensor chip protein G (Cytiva) to a surface density of 1,200–1,600 response units following the immobilization protocols provided by Cytiva. The kinetic constants were determined by a single-cycle kinetics method by the injection of five different concentrations (twofold dilution series) of each peptide at a flow rate of 30 μL/min. The resulting sensorgrams were fitted to the standard 1:1 interaction model and analyzed using Biacore evaluation software. […]
# [2] = target: T2, IFN-γ/IFNGR1 protein–protein interaction (Homo sapiens, UniProt P15260); test: IFNGR1 inhibition assay using AlphaLISA; assay type: biochemical; conditions: four-parameter dose–response fit, n = 3
# T2 construct: purchased ACROBiosystems
# T2 sequence (P15260 18-245 limits assumed): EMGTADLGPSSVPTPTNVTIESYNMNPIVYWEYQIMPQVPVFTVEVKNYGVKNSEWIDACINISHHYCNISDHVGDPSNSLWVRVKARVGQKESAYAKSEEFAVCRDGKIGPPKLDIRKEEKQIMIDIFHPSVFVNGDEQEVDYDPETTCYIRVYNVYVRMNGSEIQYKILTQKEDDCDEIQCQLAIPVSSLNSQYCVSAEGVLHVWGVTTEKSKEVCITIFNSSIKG
# Method: IFNGR1 inhibition assay using AlphaLISA
# The inhibitory activity of peptides against IFN-γ/IFNGR1 protein–protein interaction (PPI) was determined by AlphaLISA.5 Peptides, proteins, and beads were diluted in AlphaLISA immunoassay buffer (PerkinElmer, AL000C). 3.6 μL of 5 nM Fc-tagged IFNGR1 and 3.6 μL of synthetic peptides were mixed in AlphaPlate-384 Shallow Well (PerkinElmer) and preincubated at 25 °C for 10 min. 3.6 μL of 15 nM biotin-tagged IFN-γ was then added to the mix and incubated at 25 °C for 20 min. 3.6 μL each human IgG acceptor beads (PerkinElmer) and streptavidin donor beads (PerkinElmer) were added to the above mix and incubated at 25 °C for 30 min in dark place. Emission at 615 nm was measured […]
# by EnSpire Multimode Plate Reader (PerkinElmer). The fraction of bound IFN-γ/IFNGR1 was calculated by the intensity of emission in the presence of peptide divided by that in the absence of […]
# peptide. […]
# Puromycin. Normocin, Blasticidin, Zeocin, and Puromycin were excluded when conducting the experiments. To evaluate the cellular activity of peptides, peptide mixtures were added to 50,000 cells/well in a flat-bottom 96-well plate and pre-incubated for 30 min at 37 °C before stimulation.
# Subsequently, 1 ng/mL of recombinant IFN-γ (InvivoGen) was added to each well in a final reaction volume of 200 μL, followed by incubation for 20 h at 37 °C. 20 μL of supernatants from the induced cells was added to 180 μL Q U A N T I-Blue TM solution (InvivoGen). After further incubation for 3 h at 37 °C, the expression levels of the secreted embryonic alkaline phosphatase (SEAP) were determined by reading the O.D. at 650 nm on a Tecan M1000 PRO microplate reader (Tecan Group) and normalized to the non-treated well. IC50 value was analyzed by a normalized dose-response curve fitting by using GraphPad Prism 9.
# HEK-DualTM IFN-γ cells were used for the cell viability assay. 10,000 cells/well were added to each well in a flat-bottom 96-well plate. After 24 h, peptide mixtures were added to each well in a final volume of 100 μL. After further incubation for 24 h, 10 μL CCK-8 reagent (Dojindo) was added to […]
Structure (SMILES),Kd [1] [nM],kon [1] [M⁻¹ s⁻¹],IC50 [2] [nM]
"CC(C)[C@@H]1NC(=O)[C@@H](Cc2ccc(O)cc2)NC(=O)CSC[C@H](C(N)=O)NC(=O)[C@H](CC(N)=O)NC(=O)[C@H](CO)NC(=O)[C@H](CCCNC(=N)N)NC(=O)[C@H]2C[C@H](C2)NC(=O)[C@H](Cc2c[nH]cn2)NC(=O)[C@H](CC(N)=O)NC(=O)[C@H]([C@@H](C)O)NC(=O)[C@H](Cc2c[nH]cn2)NC(=O)[C@H](CCCNC(=N)N)NC(=O)[C@H](CCCNC(=N)N)NC(=O)[C@@H]2CCC[C@@H]2NC(=O)[C@@H]2CCCN2C1=O [IA1, ^AcyVPβ^1RRHTNHγ^1RSNc-NH2] ({CH2CO}-[dY]VP[X1]RRHTNH[Acbc(cis-1,3)]RSN[dC]-NH2; thioether N-15)",87 ± 2,180000,87 ± 15
"CC(C)[C@@H]1NC(=O)[C@@H](Cc2ccc(O)cc2)NC(=O)CSC[C@H](C(N)=O)NC(=O)[C@H](CCCNC(=N)N)NC(=O)[C@H](CO)NC(=O)[C@H](CCCNC(=N)N)NC(=O)[C@H](Cc2c[nH]cn2)NC(=O)CNC(=O)[C@H]2C[C@H](C2)NC(=O)[C@H](Cc2c[nH]cn2)NC(=O)[C@H](CC(N)=O)NC(=O)[C@H](CCCNC(=N)N)NC(=O)[C@H](CCCNC(=N)N)NC(=O)[C@@H]2CCC[C@@H]2NC(=O)[C@H](C)NC1=O [IB1, ^AcyVAβ^1RRNHγ^1GHRSRc-NH2] ({CH2CO}-[dY]VA[X1]RRNH[Acbc(cis-1,3)]GHRSR[dC]-NH2; thioether N-15)",11,650000 ± 20000,12 ± 3
"CC(C)[C@@H]1NC(=O)[C@@H](Cc2ccc(O)cc2)NC(=O)CSC[C@H](C(N)=O)NC(=O)[C@H](CCCNC(=N)N)NC(=O)[C@H](CO)NC(=O)[C@H](CCCNC(=N)N)NC(=O)[C@H](Cc2c[nH]cn2)NC(=O)CNC(=O)[C@H]2C[C@H](C2)NC(=O)[C@H](Cc2c[nH]cn2)NC(=O)[C@H](CC(N)=O)NC(=O)[C@H](CCCNC(=N)N)NC(=O)[C@H](CCCNC(=N)N)NC(=O)[C@H](C)NC(=O)[C@H](C)NC1=O [IB1β^14A, ^AcyVAA RRNHγ^1GHRSRc-NH2] ({CH2CO}-[dY]VAARRNH[Acbc(cis-1,3)]GHRSR[dC]-NH2; thioether N-15)",> 10000,–,> 100000
"CC(C)[C@@H]1NC(=O)[C@@H](Cc2ccc(O)cc2)NC(=O)CSC[C@H](C(N)=O)NC(=O)[C@H](C)NC(=O)[C@H](Cc2c[nH]cn2)NC(=O)[C@H](CCCNC(=N)N)NC(=O)[C@H](CCCNC(=N)N)NC(=O)CNC(=O)[C@H]2C[C@@H](C2)NC(=O)[C@H](Cc2c[nH]cn2)NC(=O)[C@H](CC(N)=O)NC(=O)[C@H](CCCNC(=N)N)NC(=O)[C@H](CCCNC(=N)N)NC(=O)[C@@H]2CCC[C@@H]2NC(=O)[C@H](C)NC1=O [IB2γ^19γ^2, ^AcyVAβ^1RRNHγ^2GRRHAc-NH2] ({CH2CO}-[dY]VA[X1]RRNH[Acbc(trans-1,3)]GRRHA[dC]-NH2; thioether N-15)",68 ± 12,75000 ± 25000,680 ± 50
"CC(C)[C@@H]1NC(=O)[C@@H](Cc2ccc(O)cc2)NC(=O)CSC[C@H](C(N)=O)NC(=O)[C@H](C)NC(=O)[C@H](CO)NC(=O)[C@H](CCCNC(=N)N)NC(=O)[C@H](CCCNC(=N)N)NC(=O)CNC(=O)[C@H]2C[C@H](C2)NC(=O)[C@H](Cc2c[nH]cn2)NC(=O)[C@H](CC(N)=O)NC(=O)[C@H](CCCNC(=N)N)NC(=O)[C@H](CCCNC(=N)N)NC(=O)[C@@H]2CCC[C@@H]2NC(=O)[C@H](C)NC1=O [IB3, ^AcyVAβ^1RRNHγ^1GRRSAc-NH2] ({CH2CO}-[dY]VA[X1]RRNH[Acbc(cis-1,3)]GRRSA[dC]-NH2; thioether N-15)",9.5 ± 0.7,930000 ± 420000,12
"CC(C)[C@@H]1NC(=O)[C@@H](Cc2ccc(O)cc2)NC(=O)CSC[C@H](C(N)=O)NC(=O)[C@H](C)NC(=O)[C@H](CO)NC(=O)[C@H](CCCNC(=N)N)NC(=O)[C@H](CCCNC(=N)N)NC(=O)CNC(=O)[C@H]2C[C@@H](C2)NC(=O)[C@H](Cc2c[nH]cn2)NC(=O)[C@H](CC(N)=O)NC(=O)[C@H](CCCNC(=N)N)NC(=O)[C@H](CCCNC(=N)N)NC(=O)[C@@H]2CCC[C@@H]2NC(=O)[C@H](C)NC1=O [IB3γ^19γ^2, ^AcyVAβ^1RRNHγ^2GRRSAc-NH2] ({CH2CO}-[dY]VA[X1]RRNH[Acbc(trans-1,3)]GRRSA[dC]-NH2; thioether N-15)",49 ± 7,470000 ± 320000,350 ± 30
"CC(C)[C@@H]1NC(=O)[C@@H](Cc2ccc(O)cc2)NC(=O)CSC[C@H](C(N)=O)NC(=O)[C@H](CC(N)=O)NC(=O)[C@H](Cc2c[nH]cn2)NC(=O)[C@H](CCCNC(=N)N)NC(=O)[C@H]2C[C@@H](C2)NC(=O)[C@H]([C@@H](C)O)NC(=O)[C@H](Cc2c[nH]cn2)NC(=O)[C@@H]2CCCN2C(=O)[C@H](CO)NC(=O)[C@H](CCCNC(=N)N)NC(=O)[C@H](CCCNC(=N)N)NC(=O)[C@@H]2CCC[C@@H]2NC(=O)[C@@H]2CCCN2C1=O [IB5, ^AcyVPβ^1RRSPHTγ^2RHNc-NH2] ({CH2CO}-[dY]VP[X1]RRSPHT[Acbc(trans-1,3)]RHN[dC]-NH2; thioether N-15)",130 ± 20,17000 ± 5000,220 ± 10

# — PMC11229689, “In Vitro Selection of Macrocyclic L-α/D-α/β/γ-Hybrid Peptides Targeting IFN-γ/IFNGR1 Protein–Protein Interaction” (Journal of the American Chemical Society, 2024)
